Assay results reported in patent publication EP2208725A1, “Novel specific inhibitors of ubiquitin specific protease 7, the pharmaceutical compositions thereof and their therapeutic applications” (Hybrigenics S.A., priority 2009, dated 2010).

Tests used:
UCH-L1 = target: T1, UCH-L1 (Homo sapiens, UniProt P09936); assay: UCH-L1 activity assay (Ub-AMC); format: biochemical; conditions: 400 nM Ub-AMC, 2.5 nM enzyme; compounds tested from 200 µM to 91 nM; unit inferred; read-out: Inhibition of cysteine protease activities: Uch-L1
T1 sequence (P09936 1-223): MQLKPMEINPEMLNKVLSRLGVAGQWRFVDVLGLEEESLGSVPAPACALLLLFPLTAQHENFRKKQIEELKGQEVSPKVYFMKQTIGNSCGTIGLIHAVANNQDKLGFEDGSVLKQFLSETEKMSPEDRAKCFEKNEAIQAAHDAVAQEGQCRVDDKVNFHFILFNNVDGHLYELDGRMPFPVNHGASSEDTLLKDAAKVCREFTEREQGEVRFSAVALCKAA
Method: UCH-L1 was diluted in USP buffer (50 mM Tris HCl; 0.5 mM EDTA; 5 mM DTT; 0.01% Triton X-100; Bovine Serum Albumin 0.05 mg.ml^-1 pH7.6). Compounds stocks (100 mM) were stored at -20°C in DMSO. Compounds were tested at different concentrations: from 200 µM to 91 nM. Reactions were performed as duplicates in Black LJL 96 well plates (HE microplates; Molecular Devices; 20 µl final reaction volume). The substrate concentration for UCH-L1 was 400 nM Ub-AMC (Boston Biochem). The concentration of the enzyme (UCH-L1) in specificity assays was 2.5 nM. The concentrations were determined in order to perform specificity assays under initial velocities at fixed substrate concentration. Compounds were pre-incubated with enzymes for 30 minutes at 25°C. Reactions were initiated by addition of substrate to the plates containing the enzymes (+/- compounds) diluted in assay buffer. Reactions were incubated for 60 minutes at 37°C. Reactions were stopped by adding acetic acid (100 mM final). Readings were performed on a Pherastar Fluorescent Reader (BMG). λ […]. Data (mean values +/- standard deviation) were analyzed as % of control (no compound) and plotted as percentage versus the Log of the compound concentration using GraphPad (Prism). Data were fitted to a sigmoidal model (variable slope).

USP5 = target: T2, USP5 (Homo sapiens, UniProt P45974); assay: USP5 activity assay (Ub-AMC); format: biochemical; conditions: 300 nM Ub-AMC, 300 pM enzyme; compounds tested from 200 µM to 91 nM; unit inferred; read-out: Inhibition of cysteine protease activities: USP 5
T2 sequence (P45974 1-858): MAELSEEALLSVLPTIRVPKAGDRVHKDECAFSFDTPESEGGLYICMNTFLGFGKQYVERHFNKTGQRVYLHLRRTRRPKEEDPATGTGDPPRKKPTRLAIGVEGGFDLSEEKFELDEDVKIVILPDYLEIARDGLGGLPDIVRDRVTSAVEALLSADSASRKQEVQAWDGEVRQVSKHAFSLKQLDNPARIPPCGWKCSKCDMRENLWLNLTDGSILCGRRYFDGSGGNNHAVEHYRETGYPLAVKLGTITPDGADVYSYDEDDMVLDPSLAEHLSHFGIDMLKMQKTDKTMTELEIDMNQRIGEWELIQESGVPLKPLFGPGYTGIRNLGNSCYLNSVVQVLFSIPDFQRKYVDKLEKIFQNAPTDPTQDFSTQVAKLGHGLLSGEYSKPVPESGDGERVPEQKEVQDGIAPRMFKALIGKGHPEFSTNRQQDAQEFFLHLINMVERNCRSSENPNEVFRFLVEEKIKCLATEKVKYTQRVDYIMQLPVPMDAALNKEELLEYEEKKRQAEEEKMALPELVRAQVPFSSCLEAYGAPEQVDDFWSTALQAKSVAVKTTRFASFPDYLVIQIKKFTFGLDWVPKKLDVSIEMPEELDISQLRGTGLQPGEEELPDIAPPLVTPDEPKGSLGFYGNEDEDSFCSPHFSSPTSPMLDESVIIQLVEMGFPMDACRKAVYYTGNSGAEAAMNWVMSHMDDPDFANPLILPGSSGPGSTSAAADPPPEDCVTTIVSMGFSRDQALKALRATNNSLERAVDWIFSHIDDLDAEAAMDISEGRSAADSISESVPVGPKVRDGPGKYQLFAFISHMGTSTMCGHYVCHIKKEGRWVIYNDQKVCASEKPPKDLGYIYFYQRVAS
Method: USP5 was diluted in USP buffer (50 mM Tris HCl; 0.5 mM EDTA; 5 mM DTT; 0.01% Triton X-100; Bovine Serum Albumin 0.05 mg.ml^-1 pH 7.6). Compounds stocks (100 mM) were stored at -20°C in DMSO. Compounds were tested at different concentrations: from 200 µM to 91 nM. Reactions were performed as duplicates in Black LJL 96 well plates (HE microplates; Molecular Devices; 20 µl final reaction volume). The substrate concentration for USP5 was 300 nM Ub-AMC (Boston Biochem). The concentrations of the enzyme (USP5) in specificity assays was 300 pM. The concentrations were determined in order to perform specificity assays under initial velocities at fixed substrate concentration. Compounds were pre-incubated with enzymes for 30 minutes at 25°C. Reactions were initiated by addition of substrate to the plates containing the enzymes (+/- compounds) diluted in assay buffer. Reactions were incubated for 60 minutes at 37°C. Reactions were stopped by adding acetic acid (100 mM final). Readings were performed on a Pherastar Fluorescent Reader (BMG). λ Emission 380 nm; λ Excitation = 460 nm. Data (mean values +/- standard deviation) were analyzed as % of control (no compound) and plotted as percentage versus the Log of the compound concentration using GraphPad (Prism). Data were fitted to a sigmoidal model (variable slope).

| SMILES | IC50 (UCH-L1) | IC50 (USP5) |
| --- | --- | --- |
| CC(=O)C1=C(O)C(=O)N(CCc2ccc(Cl)c(Cl)c2)C1c1ccc(Br)cc1 (centres unmarked) [Example 28, 4-acetyl-5-(4-bromo-phenyl)-1-[2-(3,4-dichloro-phenyl)-ethyl]-3-hydroxy-1,5-dihydro-pyrrol-2-one] | > 200 µM | > 200 µM |
| CC(=O)C1=C(O)C(=O)N(CCc2ccc(F)cc2)C1c1ccc(Br)cc1 (centres unmarked) [Example 33, 4-acetyl-5-(4-bromo-phenyl)-3-hydroxy-1-[2-(4-fluorophenyl)-ethyl]-1,5-dihydro-pyrrol-2-one] | > 200 µM | > 200 µM |
| CC(=O)C1=C(O)C(=O)N(CCc2ccc(Br)cc2)C1c1ccc(Br)cc1 (centres unmarked) [Example 26, 4-acetyl-5-(4-bromo-phenyl)-1-[2-(4-bromo-phenyl)-ethyl]-3-hydroxy-1,5-dihydro-pyrrol-2-one] | > 200 µM | > 200 µM |
| CC(=O)C1=C(O)C(=O)N(CCc2ccc(Cl)cc2)C1c1ccc(Br)cc1 (centres unmarked) [Example 25, 4-acetyl-5-(4-bromo-phenyl)-1-[2-(4-chloro-phenyl)-ethyl]-3-hydroxy-1,5-dihydro-pyrrol-2-one] | > 200 µM | > 200 µM |
| COc1ccc(CCN2C(=O)C(O)=C(C(C)=O)C2c2ccc(Br)cc2)cc1 (centres unmarked) [Example 32, 4-acetyl-5-(4-bromo-phenyl)-3-hydroxy-1-[2-(4-methoxyphenyl)-ethyl]-1,5-dihydro-pyrrol-2-one] | > 200 µM | > 200 µM |
| COc1cccc(CCN2C(=O)C(O)=C(C(C)=O)C2c2ccc(Br)cc2)c1 (centres unmarked) [Example 30, 4-acetyl-5-(4-bromo-phenyl)-3-hydroxy-1-[2-(3-methoxyphenyl)-ethyl]-1,5-dihydro-pyrrol-2-one] | > 200 µM | > 200 µM |
| CCOc1ccc(CCN2C(=O)C(O)=C(C(C)=O)C2c2ccc(Br)cc2)cc1 (centres unmarked) [Example 34, 4-acetyl-5-(4-bromo-phenyl)-3-hydroxy-1-[2-(4-ethoxy-phenyl)-ethyl]-1,5-dihydro-pyrrol-2-one] | > 200 µM | > 200 µM |
| CC(=O)C1=C(O)C(=O)N(CCc2ccccc2)C1c1ccc2c(c1)OCO2 (centres unmarked) [Example 37, 4-acetyl-5-benzo[1,3]dioxol-5-yl-3-hydroxy-1-phenethyl-1,5-dihydro-pyrrol-2-one] | > 200 µM | > 200 µM |

Now from value to compound:

| IC50 (UCH-L1) | IC50 (USP5) | SMILES |
| --- | --- | --- |
| > 200 µM | > 200 µM | CC(=O)C1=C(O)C(=O)N(CCc2ccc(Cl)cc2)C1c1ccc(Cl)cc1 (centres unmarked) [Example 46, 4-Acetyl-5-(4-chlorophenyl)-1-[2-(4-chlorophenyl)-ethyl]-3-hydroxy-1,5-dihydro-pyrrol-2-one] |
| > 200 µM | > 200 µM | CC(=O)C1=C(O)C(=O)N(CCc2ccc(Br)cc2)C1c1ccc(Cl)cc1 (centres unmarked) [Example 45, 4-Acetyl-5-(4-chlorophenyl)-1-[2-(4-bromophenyl)-ethyl]-3-hydroxy-1,5-dihydro-pyrrol-2-one] |
| > 200 µM | > 200 µM | CC(=O)C1=C(O)C(=O)N(CCc2ccccc2)C1c1ccc(Br)c(Br)c1 (centres unmarked) [Example 41, 4-acetyl-5-(3,4-dibromo-phenyl)-3-hydroxy-1-phenethyl-1,5-dihydro-pyrrol-2-one] |
| > 200 µM | > 200 µM | CC(=O)C1=C(O)C(=O)N(CCc2ccc(Cl)cc2Cl)C1c1ccc(Br)cc1 (centres unmarked) [Example 47, 4-Acetyl-5-(4-bromophenyl)-1-[2-(2,4-dichlorophenyl)-ethyl]-3-hydroxy-1,5-dihydro-pyrrol-2-one] |
| > 200 µM | > 200 µM | CC(=O)C1=C(O)C(=O)N(CCc2ccccc2)C1c1cccnc1Cl (centres unmarked) [Example 42, 4-acetyl-5-(2-chloro-pyridin-3-yl)-3-hydroxy-1-phenethyl-1,5-dihydro-pyrrol-2-one] |
